Measured values from article PMC9564337, “Development of a Neurotensin-Derived ^68Ga-Labeled PET Ligand with High In Vivo Stability for Imaging of NTS1 Receptor-Expressing Tumors” (Cancers, 2022).
Read-outs that look alike come from different tables or passages of the source. Marks after values point to notes of the source that are not given here.

Key:
[1] = cited from earlier work
hNTS1R = biological target: T1, hNTS1R (Homo sapiens, UniProt P30989); assay: radioligand competition binding with [3H]UR-MK300 at intact HT-29 cells; settings: for Ki / pKi ± SD NTS1R: [3H]UR-MK300 c = 1 nM, HT-29 cells, 23 °C
T1 construct: intact HT-29 colon carcinoma cells expressing the hNTS1R; host or cells: HT-29 human colon carcinoma cells
Text: Specific binding data (obtained by subtracting unspecific binding from total binding) were normalized (100% = specifically bound radioligand in the absence of competitor) and plotted over log(concentration of competitor) followed by a four-parameter logistic fit (SigmaPlot 12.5, Systat Software, San José, CA, USA) (note: in the case of 40, the lower curve plateau of the sigmoidal fit was constrained to >0). […] The Ki values from individual experiments were transformed to pKi values, followed by the calculation of mean pKi values ± SD.

hNTS2R = hNTS2R (Homo sapiens, UniProt O95665); assay: radioligand competition binding with [3H]UR-MK300 at intact HEK293T-hNTS2R cells; settings: [3H]UR-MK300 c = 10 nM
Procedure: Two days prior to the experiment, white 96-well plates with clear bottoms (Costar, catalog no. 3610) were treated with poly-D-lysine hydrobromide (Sigma-Aldrich) for 10 min. The wells were washed with H2O and the plates were dried on air at rt overnight. […] After removal of the glutaraldehyde solution, the wells were washed twelve times with H2O and two times with culture medium (150–300 µL). […] On the day of the experiment, the culture medium was carefully removed using a multi-channel pipette (Transferpette S-12, Brand, Wertheim, Germany) and the cells were washed once with Dulbecco’s phosphate-buffered saline (D-PBS) containing Ca^2+ and Mg^2+ (1.8 mM CaCl2, 2.68 mM KCl, 1.47 mM KH2PO4, 3.98 mM MgSO4, 136.9 mM NaCl and 8.06 mM Na2HPO4) (200 μL, rt) followed by the careful pre-filling of the wells with 180 µL (total binding) or 160 µL (unspecific and competition binding) of D-PBS, supplemented with 1% BSA and 100 μg/mL bacitracin (Serva, Heidelberg, Germany) (in the following referred to as binding buffer). To determine total binding, 20 µL of a solution of the radioligand in binding buffer (10-fold concentrated compared to the final concentration) were added. […] To determine the displacing effect of a compound of interest, 20 µL of a solution of the respective compound in binding buffer (10-fold concentrated) and 20 µL of a 10-fold concentrated solution of the radioligand in binding buffer were added. During the incubation period of 2 h at 23 °C, the plates were gently shaken. […] The plates were sealed with a transparent sealing tape (permanent seal for microplates, PerkinElmer, product no. 1450–461) and turned upside down several times to achieve complete mixing. Prior to the measurement of the radioactivity with a MicroBeta2 plate counter (PerkinElmer), the plates were kept in the dark for at least 1 h. All experiments were performed in triplicate.

in vitro = in vitro ADME; settings: human; for remaining at 1 h, 100 µM: pH 7.4, % Intact Peptide in Plasma after 1 h; for remaining at 6 h, 100 µM: pH 7.4, % Intact Peptide in Plasma after 6 h
Procedure: The concentration of the peptides in plasma/PBS (1:2 v/v) was 80 and 4 μM (recovery determination) or 100 μM (stability tests). Data analysis was based on UV detection at 220 nm (8, 9, 11, 12, 14-18, 21-23, 38-49, and 54-57) or fluorescence detection at 275/305 nm (19 and 20). Reference samples, representing 100% recovery, were prepared in duplicate (8, 9, 11, 14-16, and 19-21) or quadruplicate (12, 17, 18, 22, 23, 38-49, and 54-57). Recovery ratios were obtained by dividing the recovery of the peptide by the recovery of IS for each individual sample (n = 3-5). The obtained recoveries and the recovery ratios are summarized in Table S2, Supplementary Materials. […] Instead, the recovery ratios determined for the previously reported, structurally closely related peptide […] [40] were used for calculating the amount of remaining intact peptide in plasma.

[2] = read-out: Ki [nM] NTS1R (converted)
[3] = read-out: Ki [nM] NTS2R (converted)
[4] = read-out: pKi ± SD NTS2R (converted)

T1 sequence (P30989 whole entry): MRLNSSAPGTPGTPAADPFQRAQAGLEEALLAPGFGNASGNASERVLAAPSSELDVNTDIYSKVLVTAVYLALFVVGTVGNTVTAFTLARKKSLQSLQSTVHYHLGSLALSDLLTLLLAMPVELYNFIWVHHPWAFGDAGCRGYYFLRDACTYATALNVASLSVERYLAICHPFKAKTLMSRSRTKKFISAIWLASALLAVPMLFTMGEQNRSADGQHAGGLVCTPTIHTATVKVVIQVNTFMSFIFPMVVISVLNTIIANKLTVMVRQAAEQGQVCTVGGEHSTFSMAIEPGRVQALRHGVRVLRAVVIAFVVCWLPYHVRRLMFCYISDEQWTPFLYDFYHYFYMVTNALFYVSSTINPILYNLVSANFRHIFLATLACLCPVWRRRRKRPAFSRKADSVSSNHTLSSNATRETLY
hNTS2R, sequence (O95665 whole entry): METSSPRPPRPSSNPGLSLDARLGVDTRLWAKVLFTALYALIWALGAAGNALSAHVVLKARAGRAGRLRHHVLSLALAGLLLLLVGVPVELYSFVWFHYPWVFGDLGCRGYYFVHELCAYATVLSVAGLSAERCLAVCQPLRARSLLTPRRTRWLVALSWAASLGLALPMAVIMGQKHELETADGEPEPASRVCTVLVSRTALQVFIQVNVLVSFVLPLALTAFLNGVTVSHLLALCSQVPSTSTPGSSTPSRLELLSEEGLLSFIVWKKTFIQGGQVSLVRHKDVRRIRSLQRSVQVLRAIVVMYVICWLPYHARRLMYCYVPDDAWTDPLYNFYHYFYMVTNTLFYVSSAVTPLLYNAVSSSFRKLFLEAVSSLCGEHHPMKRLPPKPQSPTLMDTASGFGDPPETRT

Compound	NTS1R Selectivity (Ratio Ki (NTS2R)/Ki (NTS1R)) (hNTS1R)	Ki (hNTS1R; [2])	Ki (hNTS2R; [3])	% Intact Peptide in Plasma after 24 h (in vitro; 100 µM, pH 7.4)	remaining at 1 h, 100 µM (in vitro; plasma)	remaining at 6 h, 100 µM (in vitro; plasma)	pKi ± SD NTS1R (hNTS1R)	pKi ± SD NTS2R (hNTS2R)	remaining at 24 h, 100 µM (in vitro; plasma, pH 7.4, % Intact Peptide in Plasma after 24 h)	remaining at 48 h, 100 µM (in vitro; plasma, pH 7.4, % Intact Peptide in Plasma after 48 h)	% Intact Peptide in Plasma after 1 h (in vitro; 1 h, 100 µM, pH 7.4)	% Intact Peptide in Plasma after 6 h (in vitro; 6 h, 100 µM, pH 7.4)	plasma half-life [1]	% Intact Peptide in Plasma after 10 min ([1]; human plasma, 37 °C, 10 min, ref Schindler et al. [40])	% Intact Peptide in Plasma after 1 h ([1]; human plasma, 37 °C, 1 h, ref Schindler et al. [40])	% Intact Peptide in Plasma after 24 h ([1]; human plasma, 37 °C, 24 h, ref Schindler et al. [40])	% Intact Peptide in Plasma after 48 h ([1]; human plasma, 37 °C, 48 h, ref Schindler et al. [40])	Ki (hNTS1R; read-out: pKi ± SD NTS1R (converted))	Ki (hNTS2R; [4])	% Intact Peptide in Plasma after 48 h (in vitro; 100 µM, pH 7.4)
CC[C@H](C)[C@H](NC(=O)[C@H](Cc1ccc(O)cc1)NC(=O)[C@@H]1CCCN1C(=O)[C@H](CCCNC(=N)N)NC(=O)[C@@H](N)CCCNC(=N)N)C(=O)N[C@@H](CC(C)C)C(=O)O [Compound 1, Arg^8-Arg^9-Pro^10-Tyr^11-Ile^12-Leu^13]													only a few minutes	23 ^d %	<1 ^d %	<1 ^d %	<1 ^d %			
CN[C@@H](CCCNC(N)=NC(=O)NCCCCNC(=O)CN1CCN(CC(=O)O)CCN(CC(=O)O)CCN(CC(=O)O)CC1)C(=O)N[C@@H](CCCNC(=N)N)C(=O)N1CCC[C@H]1C(=O)N[C@@H](Cc1ccc(O)cc1)C(=O)N[C@H](C(=O)N[C@@H](CC(C)C)C(=O)O)C(C)(C)C [Compound 16]	4.5	33 nM	150 nM	93 ± 3%														33.1 nM	138 nM	84 ± 2%

Second part, led by results:

NTS1R Selectivity (Ratio Ki (NTS2R)/Ki (NTS1R)) (hNTS1R)	Ki (hNTS1R; [2])	Ki (hNTS2R; [3])	% Intact Peptide in Plasma after 24 h (in vitro; 100 µM, pH 7.4)	remaining at 1 h, 100 µM (in vitro; plasma)	remaining at 6 h, 100 µM (in vitro; plasma)	pKi ± SD NTS1R (hNTS1R)	pKi ± SD NTS2R (hNTS2R)	remaining at 24 h, 100 µM (in vitro; plasma, pH 7.4, % Intact Peptide in Plasma after 24 h)	remaining at 48 h, 100 µM (in vitro; plasma, pH 7.4, % Intact Peptide in Plasma after 48 h)	% Intact Peptide in Plasma after 1 h (in vitro; 1 h, 100 µM, pH 7.4)	% Intact Peptide in Plasma after 6 h (in vitro; 6 h, 100 µM, pH 7.4)	Compound	plasma half-life [1]	% Intact Peptide in Plasma after 10 min ([1]; human plasma, 37 °C, 10 min, ref Schindler et al. [40])	% Intact Peptide in Plasma after 1 h ([1]; human plasma, 37 °C, 1 h, ref Schindler et al. [40])	% Intact Peptide in Plasma after 24 h ([1]; human plasma, 37 °C, 24 h, ref Schindler et al. [40])	% Intact Peptide in Plasma after 48 h ([1]; human plasma, 37 °C, 48 h, ref Schindler et al. [40])	Ki (hNTS1R; read-out: pKi ± SD NTS1R (converted))	Ki (hNTS2R; [4])	% Intact Peptide in Plasma after 48 h (in vitro; 100 µM, pH 7.4)
6.4	36 nM	230 nM	98 ± 1%	97 ± 1%	99 ± 1%							CC(C)C[C@H](NC(=O)[C@@H](NC(=O)[C@H](Cc1ccc(O)cc1)NC(=O)[C@@H]1CCCN1C(=O)[C@H](CCCNC(=N)NC(=O)NCCCCNC(=O)CN1CCN(CC(=O)O)CCN(CC(=O)O)CCN(CC(=O)O)CC1)N(C)C(=O)[C@@H](N)CCCNC(=N)N)C(C)(C)C)C(=O)O [Compound 17]							224 nM	
4.6	16 nM	73 nM		> 99%	> 99%	7.80 ± 0.03	7.16 ± 0.18	36 ± 1%	4.2 ± 0.6%			CN[C@@H](CCCNC(=N)N)C(=O)N[C@@H](CCCNC(N)=NC(=O)NCCCCNC(=O)CN1CCN(CC(=O)O)CCN(CC(=O)O)CCN(CC(=O)O)CC1)C(=O)N1CCC[C@H]1C(=O)N[C@@H](Cc1ccc(O)cc1)C(=O)N[C@H](C(=O)N[C@@H](CC(C)C)C(=O)O)C(C)(C)C [Compound 19]								
4.4	20 nM	88 nM	30 ± 1%			7.70 ± 0.07	7.08 ± 0.16			>99%	87 ± 2%	CC(C)C[C@H](NC(=O)[C@@H](NC(=O)[C@H](Cc1ccc(O)cc1)NC(=O)[C@@H]1CCCN1C(=O)[C@H](CCCNC(N)=NC(=O)NCCCCNC(=O)CN1CCN(CC(=O)O)CCN(CC(=O)O)CCN(CC(=O)O)CC1)N(C)C(=O)[C@@H](N)CCCNC(=N)N)C(C)(C)C)C(=O)O [Compound 22]								7.7 ± 1.0%
